Assay results published in patent publication US11175204B1, “7-hydroxycoumarin-based cell-tracking reagents” (LIFE TECHNOLOGIES CORPORATION, priority 2009, dated 2021).

Test system: Human peripheral blood mononuclear cells
Assay: Cell proliferation tracking by dye dilution, flow cytometry (Biological Application Example 1)
Format: cell-based
Details: 1 μM staining; initial 24 hours after staining
Method: Human peripheral blood mononuclear cells were isolated from whole blood using a Ficoll density gradient, then washed and resuspended in phosphate buffered saline (DPBS) at a concentration of 10^6/mL. The general procedure used is as follows: • 1. Dilute 8 mL of whole blood into 8 mL of 1×PBS and mix well. • 2. Add 6 mL Ficoll-Paque Plus to a 15-mL centrifuge tube, then layer 8 mL diluted whole blood on top. • 3. Centrifuge 30 min at 400 g, then carefully remove the lymphocyte layer. • 4. Resuspend cells in 25 mL DPBS buffer in a 50-mL conical tube. • 5. Spin tube for 5 min at 200 g, pour off supernatant and resuspend in 25 mL DPBS. • 6. Repeat wash step and resuspend in 300 μL of Isolation Buffer. • 7. Count cells on cellometer; adjust cell concentration to 10^6 cells/mL
Compound 2, Compound 6, Compound 7, and Carboxyfluorescein Diacetate Succinimidyl ester (CFSE) were each dissolved in anhydrous dimethylsulfoxide to a concentration of 1 mM. Aliquots, 4-mL, of cells were then stained with 4 μL of Compound 2, Compound 6, Compound 7, or CFSE for final staining concentrations of 1 μM. Cells were incubated with agitation at room temperature for 20 minutes. Then 2 mL of heat-inactivated Fetal Bovine Serum (FBS) were added, followed by 5 more minutes of incubation. Cells were washed twice with DPBS+10% FBS and resuspended in 4 mL of OpTmizer T-Cell Expansion Buffer (GIBCO) containing 2 mM L-glutamine, and 100,000 units penicillin and 100 mg streptomycin per liter. Aliquots (1-mL) of cells stained with Compound 2, Compound 6, Compound 7, or CFSE, and a 1-ml aliquot of unstained cells were then dispensed into a 24-well polystyrene plate and incubated at 37° C. and 5% CO2 for 24 hours. One of the following four stimulus conditions were then applied individually to the cells: i) 200 ng anti-CD3 (2 μL), incubated on ice for 30 min, then transferred to culture plate and add 100 ng iL-2 per mL of culture media, ii) 5 μg/mL Concanavalin A (5 μL of a 1 mg/mL solution), iii) 75 μL CD3/CD28 T cell expander beads, or iv) no stimulus. The cells were then incubated for 72 additional hours at 37° C. and 5% CO2. Aliquots (500-μL) of cells from each treatment were analyzed immediately following staining, and at 24 hours and six days after staining.
Aliquots (500 μL) of cells were washed and resuspended in PBS, stained with mouse anti-human CD3 or CD8 R-phycoerythrin primary antibody conjugates for 15 minutes, then washed and stained with SYTOX® Red Dead Cell Stain for 5 minutes. Cells were then run through the Becton Dickinson (BD) LSRII Flow Cytometer. Fluorescence was collected using three lasers: the 405 nm excitation laser with 450/50 bandpass emission filter, the 488 nm excitation laser with 585/42 bandpass emission filter, and the 633 nm excitation laser with 660/20 bandpass emission filter. A gating strategy was employed to limit analysis to only the cells of interest. Cells were gated first on SYTOX® Red Dead Cell Stain negative (live) cells, then on R-phycoerythrin positive cells (CD3+ or CD8+ positive). […] CountBright™ Absolute Counting Beads were evaluated in each fluorescence histogram prior to each run to account for day-to-day instrument variations.

Row | Compound | loss of fluorescence over 24 hours
1 | CC(=O)Oc1cc2oc(=O)c(C(=O)ON3C(=O)CCC3=O)cc2cc1Cl [Compound 2] | very little loss of fluorescence
2 | CC(=O)Oc1cc2oc(=O)c(C(=O)N3CCC(C(=O)ON4C(=O)CCC4=O)CC3)cc2cc1Cl [Compound 6] | very little loss of fluorescence
3 | CC(=O)OCOc1cc2oc(=O)c(C(=O)N3CCC(C(=O)ON4C(=O)CCC4=O)CC3)cc2cc1Cl [Compound 7] | very little loss of fluorescence
4 | Carboxyfluorescein Diacetate Succinimidyl ester [CFSE, reference compound] | moderate fluorescence loss

Same assay, conditions: 1 μM staining; six days after staining; stimulated

Row | Compound | fluorescence histogram from stimulated cells
5 | CC(=O)Oc1cc2oc(=O)c(C(=O)ON3C(=O)CCC3=O)cc2cc1Cl [Compound 2] | distinct peaks corresponding to each generation of cells
6 | CC(=O)Oc1cc2oc(=O)c(C(=O)N3CCC(C(=O)ON4C(=O)CCC4=O)CC3)cc2cc1Cl [Compound 6] | distinct peaks corresponding to each generation of cells
7 | CC(=O)OCOc1cc2oc(=O)c(C(=O)N3CCC(C(=O)ON4C(=O)CCC4=O)CC3)cc2cc1Cl [Compound 7] | distinct peaks corresponding to each generation of cells
8 | Carboxyfluorescein Diacetate Succinimidyl ester [CFSE, reference compound] | distinct peaks corresponding to each generation of cells

Same assay, conditions: 1 μM staining; six days after staining; unstimulated

Row | Compound | fluorescence intensity and coefficient of variation from unstimulated cells
9 | CC(=O)Oc1cc2oc(=O)c(C(=O)ON3C(=O)CCC3=O)cc2cc1Cl [Compound 2] | little change from initial staining
10 | CC(=O)Oc1cc2oc(=O)c(C(=O)N3CCC(C(=O)ON4C(=O)CCC4=O)CC3)cc2cc1Cl [Compound 6] | little change from initial staining
11 | CC(=O)OCOc1cc2oc(=O)c(C(=O)N3CCC(C(=O)ON4C(=O)CCC4=O)CC3)cc2cc1Cl [Compound 7] | little change from initial staining
12 | Carboxyfluorescein Diacetate Succinimidyl ester [CFSE, reference compound] | little change from initial staining
